Measured values: ChEMBL document CHEMBL5385927, “Chemical and Antiplasmodial Investigations on Eremophila-Derived Alkaloids and Semisynthetic Ether Analogues” (J Nat Prod, 2024)

Assays:
[1] = system: Plasmodium falciparum; test: Antiplasmodial activity against choloroquine-sensitive ring stage of Plasmodium falciparum 3D7 assessed as inhibition of parasite growth measured after 72 hrs by DAPI staining based analysis; format: functional, organism-based; details: 3D7, 72 h
[2] = Cytotoxicity against human HEK293 cells assessed as inhibition of cell viability at 80 uM measured after 66 hrs by Alamar Blue dye based fluorescence analysis; format: toxicity; details: read-out: INH
[3] = Cytotoxicity against human HEK293 cells assessed as inhibition of cell viability measured after 66 hrs by Alamar Blue dye based fluorescence analysis; format: toxicity
[4] = system: Plasmodium falciparum; test: Antiplasmodial activity against choloroquine-sensitive ring stage of Plasmodium falciparum 3D7 assessed as inhibition of parasite growth at 40 uM measured after 72 hrs by DAPI staining based analysis; format: functional

| SMILES | IC50 [1] [µM] | cytotoxicity at 66 h, 80 µM [2] [%] | IC50 at 66 h [3] [µM] | inhibition at 40 µM [4] [%] |
| --- | --- | --- | --- | --- |
| CC(C)=CCCc1cnc2c(C)cc(O)c3c2c1CC[C@H]3C | 8.9 | 92 | – | – |
| CC(C)=CCCc1cnc2c(C)cc(OCc3ccccc3)c3c2c1CC[C@H]3C | 7.6 | – | 30.8 | – |
| CC(C)=CCCc1cnc2c(C)cc(OC3CCCCC3)c3c2c1CC[C@H]3C | – | 23 | – | 93 |
| C=CCOc1cc(C)c2ncc(CCC=C(C)C)c3c2c1[C@H](C)CC3 | 13.1 | 85 | – | – |
| CC(C)=CCCc1cnc2c(C)cc(OCc3cccc([N+](=O)[O-])c3)c3c2c1CC[C@H]3C | 13.1 | 7 | – | – |
| CC(C)=CCCc1cnc2c(C)cc(OCc3ccccc3-c3ccccc3)c3c2c1CC[C@H]3C | 8 | 94 | – | – |
| CC(C)=CCCc1cnc2c(C)cc(O)c3c2c1[C@H](O)C[C@H]3C | – | 14 | – | 78 |
| CC(C)=CCCc1cnc2c(C)cc(OCc3cccc(Cl)c3)c3c2c1CC[C@H]3C | 11 | 65 | – | – |
| CC(C)=CCCc1cnc2c(C)cc(OCc3ccc(Br)cc3)c3c2c1CC[C@H]3C | 9.7 | – | 40.7 | – |
| CC(C)=CCCc1cnc2c(C)cc(OCc3cccc(Br)c3)c3c2c1CC[C@H]3C | 7.2 | – | 39.3 | – |
| CC(C)=CCCc1cnc2c(C)cc(OC3CCCC3)c3c2c1CC[C@H]3C | 12.5 | 83 | – | – |
| CC(C)=CCCc1cnc2c(C)cc(OCc3cc(F)ccc3F)c3c2c1CC[C@H]3C | 8 | – | 31.4 | – |
| C[C@H]1[C@@H](O)O[C@@H]2O[C@@]3(C)CC[C@H]4[C@H](C)CC[C@@H]1[C@@]24OO3 [ARTENIMOL] | 0.021 | – | – | – |
| COc1ccc(C[C@H](N)C(=O)N[C@H]2[C@@H](O)[C@H](n3cnc4c(N(C)C)ncnc43)O[C@@H]2CO)cc1 [PUROMYCIN] | 0.033 | – | 0.49 | – |
